According to patent US20250179073A1, “TRICYCLIC HETEROCYCLE COMPOUNDS AS IAP ANTAGONISTS” (Ascentage Pharma (Suzhou) Co., Ltd., priority 2022, published 2025):

Columns and labels:
MDA-MB-231 cells = experiment: Cell proliferation assay (CellTiter-Glo), MDA-MB-231; assay type: cell-based; settings: Homo sapiens, MDA-MB-231, 72 h, 72 h treatment, Celltiter-Glo luminescence
Procedure, shortened: (§1)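 MDA-MB-231 (RPMI-1640/10% FBS) and EVSA-T (MEM/10% FBS) cells, 10000 cells/well, exposed 72 h to compound at […]. Viability read by CellTiter-Glo luminescence after 15 min at room temperature. IC50 from control-normalised curve fitting.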

EVSA-T cells = experiment: Cell proliferation assay (CellTiter-Glo), EVSA-T; assay type: cell-based; settings: Homo sapiens, EVSA-T, 72 h, 72 h treatment, Celltiter-Glo luminescence
Procedure, shortened: as §1

Structure (SMILES)	IC50 (MDA-MB-231 cells) [nM]	IC50 (EVSA-T cells) [nM]
C[C@@H]1CN(CC(=O)N2CC(C)(C)c3c2cc(Cc2ccc(F)cc2)c2nn(CCO)c(=O)n32)[C@@H](CN2CCOC[C@H]2C)CN1 [Compound 201, 4-(4-fluorobenzyl)-2-(2-hydroxyethyl)-8,8-dimethyl-6-(2-((2R,5R)-5-methyl-2-(((R)-3-methylmorpholino)methyl)piperazin-1-yl)acetyl)-2,6,7,8-tetrahydro-1H-pyrrolo[2,3-e][1,2,4]triazolo[4,3-a]pyridin-1-one]	26	11
C[C@@H]1CN(CC(=O)N2CC(C)(C)c3c2cc(Cc2ccc(F)cc2)c2nn(CC(C)(C)O)c(=O)n32)[C@@H](CN2CCN(C3COC3)C[C@H]2C)CN1 [Compound 267, 4-(4-fluorobenzyl)-2-(2-hydroxy-2-methylpropyl)-8,8-dimethyl-6-(2-((2R,5R)-5-methyl-2-(((R)-2-methyl-4-(oxetan-3-yl)piperazin-1-yl)methyl)piperazin-1-yl)acetyl)-2,6,7,8-tetrahydro-1H-pyrrolo[2,3-e][1,2,4]triazolo[4,3-a]pyridin-1-one]	34	19.6
C[C@@H]1CN(CC(=O)N2CC(C)(C)c3c2cc(Cc2ccc(F)cc2)c2nc(Cl)cn32)[C@@H](CN2CCOC[C@H]2C)CN1 [Compound 113, 1-(2-chloro-4-(4-fluorobenzyl)-8,8-dimethyl-7,8-dihydro-6H-imidazo[1,2-a]pyrrolo[2,3-e]pyridin-6-yl)-2-((2R,5R)-5-methyl-2-(((R)-3-methylmorpholino)methyl)piperazin-1-yl)ethan-1-one]	74	6
C[C@@H]1CN(CC(=O)N2CC(C)(C)c3c2cc(Cc2ccc(F)cc2)c2ncc(Cl)n32)[C@@H](CN2CCOC[C@H]2C)CN1 [Compound 118, 1-(1-chloro-4-(4-fluorobenzyl)-8,8-dimethyl-7,8-dihydro-6H-imidazo[1,2-a]pyrrolo[2,3-e]pyridin-6-yl)-2-((2R,5R)-5-methyl-2-(((R)-3-methylmorpholino)methyl)piperazin-1-yl)ethan-1-one]	120	10
C[C@@H]1CN(CC(=O)N2CC(C)(C)c3c2cc(Cc2ccc(F)cc2)c2nn(Cc4ccncc4)c(=O)n32)[C@@H](CN2CCOC[C@H]2C)CN1 [Compound 254, 4-(4-fluorobenzyl)-8,8-dimethyl-6-(2-((2R,5R)-5-methyl-2-(((R)-3-methylmorpholino)methyl)piperazin-1-yl)acetyl)-2-(pyridin-4-ylmethyl)-2,6,7,8-tetrahydro-1H-pyrrolo[2,3-e][1,2,4]triazolo[4,3-a]pyridin-1-one]	69	3.8

More lines, main results first:

IC50 (MDA-MB-231 cells) [nM]	Structure (SMILES)	IC50 (EVSA-T cells) [nM]
77	COC(=O)N1CCN(CC2CN[C@H](C)CN2CC(=O)N2CC(C)(C)c3c2cc(Cc2ccc(F)cc2)c2ncnn32)[C@H](C)C1 (stereo in doubt) [Compound 223, methyl (R)-4-(((2S,5R)-1-(2-(4-(4-fluorobenzyl)-8,8-dimethyl-7,8-dihydro-6H-pyrrolo[2,3-e][1,2,4]triazolo[1,5-a]pyridin-6-yl)-2-oxoethyl)-5-methylpiperazin-2-yl)methyl)-3-methylpiperazine-1-carboxylate]	3
52	C[C@@H]1CN(CC(=O)N2CC(C)(C)c3c2cc(Cc2ccc(F)cc2)c2ncnn32)[C@@H](CN2Cc3cnccc3C2=O)CN1 [Compound 96, 2-(((2R,5R)-1-(2-(4-(4-fluorobenzyl)-8,8-dimethyl-7,8-dihydro-6H-pyrrolo[2,3-e][1,2,4]triazolo[1,5-a]pyridin-6-yl)-2-oxoethyl)-5-methylpiperazin-2-yl)methyl)-2,3-dihydro-1H-pyrrolo[3,4-c]pyridin-1-one]	5
70	C[C@@H]1CN(CC(=O)N2CC(C)(C)c3c2cc(Cc2ccc(F)cc2)c2ncnn32)[C@@H](CN2CCC(C)(O)C[C@H]2C)CN1 (stereo partly drawn) [Compound 77, 1-(4-(4-fluorobenzyl)-8,8-dimethyl-7,8-dihydro-6H-pyrrolo[2,3-e][1,2,4]triazolo[1,5-a]pyridin-6-yl)-2-((2R,5R)-2-(((2R)-4-hydroxy-2,4-dimethylpiperidin-1-yl)methyl)-5-methylpiperazin-1-yl)ethan-1-one]	5
